Data: patent US7094807B2, “Substituted aryl thioureas and related compounds; inhibitors of viral replication” (Achillion Pharmaceuticals, Inc., priority 2002, dated 2006)

system: HCV replicon; assay: HCV replicon assay (NPT ELISA in HCV replicon-containing cells); assay type: cell-based; details: Hepatitis C virus, 72 h; HCV replicon-containing Huh-7 cells; three days incubation; read-out: EC50 for inhibition of replication of the HCV replicon
Protocol: The compounds claimed herein were tested for the ability to inhibit viral replication of the Hepatitis C replicon in cultured cells in which the HCV replicon construct has been incorporated. The HCV replicon system was described by Bartenschlager, et. al (Science, 285, pp. 110-113 (1999)). The replicon system is predictive of in vivo anti-HCV activity; compounds that are active in humans uniformly evidence activity in the replicon assay.
In this assay HCV replicon containing cells are treated with different concentrations of the test compound to ascertain the ability of the test compound to suppress replication of the HCV replicon. As a positive control, HCV replicon-containing cells are treated with different concentrations of interferon alpha, a known inhibitor of HCV replication. The replicon assay system includes Neomycin Phosphotransferase (NPT) as a component of the replicon itself in order to detect the transcription of replicon gene products in the host cell. Cells in which the HCV replicon is actively replicating have high levels of NPT; the level of NPT is proportional to HCV replication. […] The NPT level of each sample is measured using a captured ELISA.
A protocol for testing compounds for the ability to inhibit viral replication of the Hepatitis C replicon cultured cells in which the replicon construct has been incorporated, follows.
The HCV replicon contains, 5-′3′, the HCV-IRES, the neomycin phosphotransferase (neo) gene, the IRES of encephalomyocarditis virus, which directs translation of HCV sequences NS3 to NS5B, and the 3′-NTR. The sequence of the HCV replicon has been deposited in GenBank (Accession no. AJ242652).
The replicon is transfected into Huh-7 cells using standard methods such as electroporation.
The equipment and materials include, but are not limited to, Huh-7 HCV replicon-containing cells, maintenance media (DMEM (Dulbecco's modified Eagle media) supplemented with 10% FBS, L-glutamine, non-essential amino acids, penicillin (100 units/ml), streptomycin (100 micrograms/ml), and 500 micrograms/ml of Geneticin G418), screening media (DMEM supplemented with 10% FBS, L-glutamine, and non-essential amino acid, penicillin (100 units/ml) and streptomycin (100 micrograms/ml)), 96 well tissue culture plates (flat bottom), 96 well plates (U bottom for drug dilution), Interferon alpha for positive control, fixation reagent (such as methanol: acetone), primary antibody (rabbit anti-NPTII), secondary antibody: Eu-N1 l, and enhancement solution.
HCV replicon-containing cells are rinsed with once PBS once; 2 mls of trypsin is added. Cells are incubated at 37° C. in a 5% CO2 incubator for 3-5 minutes. 10 mls of complete medium is added to stop the reaction. Cells are blown gently, put into a 15 ml tube, and spun at 1200 rpm for four minutes. The trypsin/medium solution is removed and 5 mls of medium (500 ml DMEM (high glucose)) from BRL catalog #12430-054; 50 mls 10% FBS, […] (50 mg/ml, BRL 10131-035), 5 ml MEM non-essential amino acid (100×BRL #11140-050) and 5 ml pen-strep (BRL #15140-148) is added. The cells and media are mixed carefully
Cells are plated with screening medium (500 ml DMEM (BRL #21063-029), 50 ml FBS (BRL #10082-147) and 5 ml MEM non-essential amino acid (BRL #11140-050) at 6000-7500 cells/100 μl/well of 96 well plate (6-7.5×10^5 cells/10 ml/plate). Plates are placed into 37° C. 5% CO2 incubator overnight.
The following morning, drugs (test compounds or interferon alpha) are diluted in 96 well U bottom plates with media or DMSO/media, depending on the final concentration chosen for screening. Generally for 6 concentrations of each test compounds ranging from 10 micromolar to 0.03 micromolar are applied. 100 μl of the test compound dilution is placed in wells of the 96 well plate containing the HCV replicon cells. Media without drug is added to some wells as a negative controls. DMSO is known to affect cell growth. […]

Row | SMILES | EC50
1 | O=C(NC(=S)Nc1cccc(OCc2ccccc2)c1)C1Cc2ccccc2O1 (stereo not shown) [Compound 39, 1-(3-Benzyloxy-phenyl)-3-(2,3-dihydro-benzofuran-2-carbonyl)-thiourea] | < 30 µM
2 | O=C(NC(=S)Nc1cccc(OCc2ccccc2)c1)C1COc2ccccc2O1 (stereo not shown) [Compound 40, 1-(3-Benzyloxy-phenyl)-3-(2,3-dihydro-benzo[1,4]dioxine-2-carbonyl)-thiourea] | < 30 µM
3 | O=C(NC(=S)Nc1cccc(OCc2ccccc2)c1)C1CCc2ccccc2O1 (stereo not shown) [Compound 41, 1-(3-Benzyloxy-phenyl)-3-(chroman-2-carbonyl)-thiourea] | < 30 µM
4 | O=C(NC(=S)Nc1cccc(OCc2ccccc2)c1)c1ccc2ccccc2n1 [Compound 42, 1-(3-Benzyloxy-phenyl)-3-(quinoline-2-carbonyl)-thiourea] | < 30 µM
